Measured values as given in the supplement of paper PMC10331698.
± gives the standard deviation of the averaged measurements.

Assays:
Assay in all cases: level (log10 ratio to DMSO vehicle control); higher = higher biomarker level / cell amount than vehicle control
Settings in all cases: in DMSO
[1] = compound: O=C(O)CCC(F)(F)C(F)(F)C(F)(F)F [3:3 Fluorotelomer carboxylic acid]
Experimental: (§1)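 BioMAP Diversity Plus panel of 12 human primary cell co-culture systems (3C, 4H, LPS, SAg, BT, BF4T, BE3C, CASM3C, HDF3CGF, KF3CT, MyoF, Mphg). Compounds were added 1 h before stimulation and left for 24 h (MyoF 48 h; BT 72 h for soluble read-outs or 6 d for IgG). Biomarkers were read by ELISA, cytotoxicity by SRB, PBMC viability and proliferation by Alamar Blue. Each well value was divided by the mean of 8 DMSO control wells on the same plate and log10 transformed; duplicate blinded samples were tested at 4 concentrations.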

[2] = compound: N=C(N)C(F)(F)C(F)(F)C(F)(F)C(F)(F)C(F)(F)C(F)(F)C(F)(F)F [Perfluorooctanamidine]
Experimental: as §1

[3] = compound: CCCCCCCCC(F)(F)C(F)(F)C(F)(F)C(F)(F)C(F)(F)C(F)(F)F [1-(Perfluorohexyl)octane]
Experimental: as §1

[4] = compound: O=C(O)C(F)(F)C(F)(F)C(F)(F)C(F)(F)C(F)(F)C(F)(F)C(F)(F)C(F)(F)C(F)(F)C(F)(F)C(F)(F)C(F)(F)F [Perfluorotridecanoic acid]
Experimental: as §1

[5] = compound: OCC(F)(F)C(F)(F)C(F)(F)C(F)(F)C(F)(F)C(F)F [1H,1H,7H-Dodecafluoro-1-heptanol]
Experimental: as §1

[6] = compound: O=S(=O)(O)C(F)(F)C(F)(F)C(F)(F)C(F)(F)C(F)(F)C(F)(F)C(F)(F)C(F)(F)F [Potassium perfluorooctanesulfonate]
Experimental: as §1

Row | Test System | level (log10) ([1]; 6700 nM) | level (log10) ([1]; 20000 nM) | level (log10) ([1]; 60000 nM) | level (log10) ([2]; 6700 nM) | level (log10) ([2]; 20000 nM) | level (log10) ([2]; 60000 nM) | level (log10) ([3]; 6700 nM) | level (log10) ([3]; 20000 nM) | level (log10) ([4]; 1500 nM) | level (log10) ([4]; 4400 nM) | level (log10) ([4]; 13000 nM) | level (log10) ([4]; 40000 nM) | level (log10) ([5]; 6700 nM) | level (log10) ([5]; 20000 nM) | level (log10) ([5]; 60000 nM) | level (log10) ([6]; 6700 nM) | level (log10) ([6]; 20000 nM) | level (log10) ([6]; 60000 nM)
1 | BF4T:CD90 | -0.0025 ± 0.005 | -0.009 ± 0.0014 | -0.0085 ± 0.013 | 0.0025 ± 0.015 | -0.0115 ± 0.005 | 0.042 | -0.004 ± 0.0028 | -0.013 ± 0.0071 | -0.0015 ± 0.016 | -0.002 ± 0.016 | -0.001 ± 0.013 | 0.005 ± 0.0014 | -0.0045 ± 0.0035 | -0.0085 ± 0.012 | -0.0035 ± 0.015 | 0.0085 ± 0.0064 | -0.0075 ± 0.00071 | 0.0075 ± 0.019
2 | BF4T:SRB | -0.008 ± 0.0057 | -0.0105 ± 0.0035 | 0 ± 0.0014 | -0.009 ± 0.0071 | -0.0085 ± 0.0035 | -0.004 | -0.0045 ± 0.0035 | -0.0035 ± 0.0035 | 0.009 ± 0.0042 | -0.0045 ± 0.005 | 0.0025 ± 0.011 | 0.008 ± 0.013 | -0.007 ± 0.0028 | -0.01 | -0.0005 ± 0.005 | -0.01 ± 0.011 | -0.01 ± 0.0099 | -0.002 ± 0.0099
3 | 3C:SRB | -0.0095 ± 0.00071 | -0.006 ± 0.0028 | -0.012 ± 0.0099 | 0.008 ± 0.016 | 0.0195 ± 0.019 | -0.054 | 0.004 ± 0.021 | -0.005 ± 0.018 | -0.017 ± 0.0085 | -0.0125 ± 0.0035 | -0.012 ± 0.016 | -0.0125 ± 0.028 | -0.005 ± 0.0071 | -0.006 ± 0.0071 | -0.0025 ± 0.00071 | 0.0105 ± 0.025 | -0.0195 ± 0.033 | -0.045 ± 0.042
4 | BT:Secreted IgG | -0.011 ± 0.024 | -0.0295 ± 0.012 | -0.0155 ± 0.005 | 0.0115 ± 0.039 | -0.042 ± 0.0042 | -0.034 | 0.0355 ± 0.012 | 0.04 ± 0.028 | 0.001 ± 0.042 | -0.0025 ± 0.067 | -0.027 ± 0.052 | -0.029 ± 0.02 | 0.014 ± 0.025 | -0.01 ± 0.028 | -0.0275 ± 0.03 | 0.0115 ± 0.018 | 0.018 ± 0.0071 | -0.0055 ± 0.005
5 | SAg:CXCL8/IL-8 | -0.0145 ± 0.00071 | -0.016 ± 0.011 | -0.0035 ± 0.013 | 0.005 ± 0.018 | 0.023 ± 0.0085 | -0.022 | -0.013 ± 0.0085 | 0.032 ± 0.041 | 0.018 ± 0.072 | -0.0025 ± 0.021 | -0.001 ± 0.0057 | 0.0035 ± 0.09 | 0.025 ± 0.0028 | 0.008 ± 0.0071 | 0.037 ± 0.038 | -0.0055 ± 0.018 | 0.0145 ± 0.036 | 0.025 ± 0.027
6 | BF4T:uPA | 0.0025 ± 0.016 | 0 ± 0.011 | -0.01 ± 0.031 | -0.0185 ± 0.005 | -0.0225 ± 0.011 | 0.05 | -0.0105 ± 0.0035 | -0.0125 ± 0.00071 | 0.0185 ± 0.018 | 0.011 ± 0.0042 | 0.0095 ± 0.0021 | 0.0155 ± 0.005 | -0.0125 ± 0.019 | -0.0145 ± 0.0021 | -0.002 ± 0.0014 | -0.004 ± 0.0028 | 0.01 ± 0.016 | 0.0395 ± 0.043
7 | SAg:CXCL9/MIG | 0.001 ± 0.0028 | -0.009 ± 0.0014 | 0.001 ± 0.014 | 0 ± 0.0085 | 0.0085 ± 0.0021 | 0.007 | -0.002 ± 0.0057 | 0.0095 ± 0.016 | -0.002 ± 0.0028 | -0.013 | -0.016 ± 0.0028 | 0.0035 ± 0.018 | 0.006 ± 0.0071 | -0.006 ± 0.0071 | 0.01 ± 0.0099 | -0.0135 ± 0.00071 | 0.005 ± 0.0057 | -0.0035 ± 0.019
8 | BT:PBMC Cytotoxicity | 0.0035 ± 0.0064 | 0.012 ± 0.017 | 0.018 ± 0.014 | 0.005 | 0 ± 0.031 | 0.006 | 0 ± 0.013 | 0.0225 ± 0.0021 | -0.0035 ± 0.00071 | 0.0245 ± 0.005 | 0.018 ± 0.011 | 0.0165 ± 0.029 | -0.0155 ± 0.0021 | -0.016 ± 0.013 | -0.049 ± 0.0028 | -0.0055 ± 0.022 | 0.0125 ± 0.033 | 0.097 ± 0.058
9 | BE3C:CD87/uPAR | 0.0045 ± 0.016 | -0.0035 ± 0.011 | 0.0115 ± 0.019 | -0.001 ± 0.014 | -0.0035 ± 0.057 | 0.083 | 0.0085 ± 0.00071 | 0.017 ± 0.0099 | 0.012 ± 0.038 | -0.013 ± 0.0071 | 0.006 ± 0.018 | 0.0335 ± 0.03 | 0.018 ± 0.033 | 0.011 ± 0.0028 | 0.013 ± 0.011 | 0.0335 ± 0.022 | 0.081 ± 0.054 | 0.14 ± 0.025
10 | SAg:CCL2/MCP-1 | 0.005 ± 0.0014 | -0.0145 ± 0.016 | 0.0145 ± 0.028 | -0.004 ± 0.0014 | 0.0225 ± 0.005 | -0.015 | -0.01 | 0.0015 ± 0.018 | -0.013 ± 0.016 | -0.0275 ± 0.0035 | -0.0265 ± 0.0064 | 0.005 ± 0.014 | 0.0005 ± 0.005 | -0.0035 ± 0.00071 | 0.0225 ± 0.029 | -0.015 ± 0.0071 | -0.0025 ± 0.0021 | 0.004 ± 0.013
11 | BE3C:CXCL9/MIG | 0.006 ± 0.0099 | 0.0055 ± 0.00071 | 0.01 ± 0.0014 | 0.0135 ± 0.018 | 0.0085 ± 0.0092 | 0.037 | 0.0055 ± 0.0035 | 0.0015 ± 0.0021 | -0.0015 ± 0.015 | -0.0045 ± 0.0035 | -0.014 ± 0.0099 | -0.0125 ± 0.013 | 0.0135 ± 0.0021 | 0.003 ± 0.014 | 0.0115 ± 0.013 | 0.0095 ± 0.0064 | -0.014 ± 0.024 | -0.039 ± 0.021
12 | LPS:sTNF-alpha | -0.0235 ± 0.023 | -0.0195 ± 0.019 | -0.0115 ± 0.032 | -0.0145 ± 0.071 | -0.095 ± 0.17 | -0.08 | 0.0005 ± 0.0064 | -0.0015 ± 0.013 | -0.0185 ± 0.0092 | -0.016 ± 0.018 | -0.0375 ± 0.025 | -0.0485 ± 0.021 | -0.06 ± 0.028 | -0.04 ± 0.042 | -0.023 ± 0.073 | -0.03 ± 0.073 | -0.047 ± 0.1 | -0.0915 ± 0.15
13 | 3C:CD87/uPAR | 0.0055 ± 0.011 | -0.017 ± 0.0057 | -0.0125 ± 0.018 | 0.0265 ± 0.059 | 0.0135 ± 0.028 | 0.042 | -0.0145 ± 0.013 | -0.0075 ± 0.019 | 0.065 ± 0.025 | 0.0355 ± 0.039 | 0.066 ± 0.011 | 0.059 ± 0.016 | 0.023 ± 0.0028 | 0.002 ± 0.0099 | -0.0045 ± 0.012 | -0.0065 ± 0.076 | 0.002 ± 0.017 | 0.015 ± 0.048
14 | BT:sIL-6 | 0.0225 ± 0.056 | 0.055 ± 0.065 | 0.0425 ± 0.076 | 0.0205 ± 0.025 | -0.0285 ± 0.016 | -0.097 | -0.0155 ± 0.094 | -0.006 ± 0.03 | 0.033 ± 0.086 | -0.0175 ± 0.026 | 0.011 ± 0.12 | -0.0485 ± 0.066 | 0.007 ± 0.085 | -0.037 ± 0.014 | -0.113 ± 0.068 | 0.0165 ± 0.042 | 0.0765 ± 0.016 | -0.023 ± 0.11
15 | 3C:CXCL9/MIG | 0.0045 ± 0.0021 | -0.001 ± 0.0028 | 0.001 ± 0.0014 | 0.007 ± 0.0071 | -0.0165 ± 0.0035 | 0.005 | 0.009 ± 0.023 | 0.017 ± 0.016 | 0.0055 ± 0.0035 | 0.0005 ± 0.00071 | 0.003 ± 0.0085 | 0.0035 ± 0.00071 | 0.0065 ± 0.0078 | -0.0005 ± 0.015 | -0.0015 ± 0.0021 | 0.0085 ± 0.0092 | -0.003 ± 0.0042 | 0.013 ± 0.013
16 | SAg:Proliferation | -0.021 ± 0.013 | 0.0205 ± 0.053 | -0.006 ± 0.0085 | 0.0195 ± 0.011 | 0 ± 0.048 | -0.565 | 0.0125 ± 0.04 | 0.0675 ± 0.03 | -0.019 ± 0.047 | -0.0125 ± 0.005 | -0.066 ± 0.023 | -0.036 ± 0.031 | -0.003 ± 0.014 | 0.03 ± 0.037 | 0.007 ± 0.018 | 0.0005 ± 0.0021 | 0.0495 ± 0.0035 | 0.066 ± 0.051
